Marks after values point to notes of the source that are not given here.
Experiments:
[1] = tested on: VE cadherin-positive mononuclear cells; experiment: VE cadherin-positive mononuclear cells in peripheral blood of lower limb DVT patients, flow cytometry; type: in vivo, human; details: before administration 0.44 ± 0.70, diluted solution 10 ml/body/day femoral artery puncture, 14 days
Description: The subjects consisted of 14 male and 6 female lower limb DVT patients with the unilateral limb suffer from the illness, aged from 59 to 76 years old (average age: 67.2 years old). The purpose of the clinical test was explained to all subjects and their consent was obtained before conducting the clinical test.
The first solution was a mixed solution made of sodium chlorite with the concentration of 7.47% and sodium chloride with the concentration of 1.59% with deionized water; the second solution was made of citric acid with the concentration of 16.7% with deionized water. Same volume of solutions were taken out from different vessels with different volumes and mixed up. […]
Five ml of peripheral blood was collected from the median cubital vein of the forearm of each patient using low molecular weight heparin anticoagulant before administration (before initial administration) and on day 7 and 14 after administration, and the collected blood was immediately stored at 4° C. and measured within 6 hours after collection. […]
VE Cadherin-positive mononuclear cells were isolated by immunofluorescent stain using flow cytometry. […] Next, VE cadherin-positive mononuclear cells were isolated and counted by flow cytometry. The ratio (%) of VE cadherin-positive mononuclear cells among the mononuclear cells was calculated according to the following formula. […]

[2] = tested on: cerebral ischemia/reperfusion injury model rats; experiment: Neural function score in cerebral ischemia/reperfusion injury model (Example 3); type: in vivo, Sprague-Dawley rats; details: for neural function score (median): n=15, scale 0 normal to 5
Description: Male Sprague-Dawley rats with the age of 12 weeks and weight of 250^˜280 g were used in the experiment after acclimating for a week.
A middle cerebral artery occlusion model was first established in compliance with the method of Longa E Z et al. (Longa E Z, et al. Reversible middle cerebral artery occlusion without craniectomy in rats. Stroke 20:84-91, 1989). More specifically, 0.36 g/kg of 10% chloral hydrate was administered intraperitoneally to rats which had been fasted for 12 hours (although given free access to water) to anesthetize the rats. Next, a midline incision was made in the neck to expose the right common carotid artery. Then, the internal carotid artery and external carotid artery were separated, the posterior carotid artery, which is a branch of the external carotid artery, and the thyroidea arteria were coagulated and severed, the external carotid artery was ligated at the branch of the lingual artery and maxillary artery, a small puncture was formed in the external carotid artery, 4-0 Nylon suture was passed through the common carotid artery from the puncture, and gradually inserted into the internal carotid artery until there was resistance. The length of the Nylon suture was about 18^˜20 mm from the branch of the common carotid artery. As a result of occluding the middle cerebral artery with Nylon suture, an ischemic state was applied for 2 hours to create a middle cerebral artery occlusion model.
A cerebral ischemia/reperfusion injury model was established by removing the Nylon suture from the middle cerebral artery of the occlusion model and following reperfusion of blood.
The first solution was a mixed solution made of sodium chlorite with the concentration of 7.47% and sodium chloride with the concentration of 1.59% with deionized water; the second solution was made of citric acid with the concentration of 16.7% with deionized water. Same volume of solutions were taken out from different vessels with different volumes and mixed up. Allow the solution to mix for 3-5 minutes and dilute it five times with normal saline, and then filter it with 0.22 μm filter membrane of double-deck. The solution was immediately put into injector. The solution was prepared once being used.
Treatment group (120 rats): A cerebral ischemia/reperfusion injury model was established for the rats already. To administer chlorine dioxide solution everytime that prepared from procedure (3) through carotid artery after the second day the model has established, once a day for total ten days.
Neural function scores were evaluated once a day after the ischemia/reperfusion injury model established in the 15 rats per group. The scores of neural function disorders were evaluated using the following criteria in compliance with the method of Longa E Z (Longa E Z, et al. Reversible middle cerebral artery occlusion without craniectomy in rats. Stroke 20:84-91, 1989). The results were shown as median.
1: Contralateral limb bending on infarction focus
2: Contralateral limb on infarction focus becomes asthenic state when tail is pulled backward
3: Turning toward opposite side of infarction focus when tail is pulled
4: Spontaneous turning towards opposite side of infarction focus
5: Loss of spontaneous movement

[3] = tested on: androgenetic alopecia (hair-loss patients); experiment: Androgenetic alopecia patients, solution smeared on alopecia area (Example 1); details: for increased ratio of hair density vs before administration, Region 1 (center of crown) / increased ratio of hair density vs before administration, Region 2 (middle of crown and forehead) / increased ratio of hair density vs before administration, Region 3 (on the forehead) / increased ratio of hair density vs before administration, Region 4 (both sides of forehead): 5.1 cm2 circle
Description: Drug preparation: The first solution was a mixed solution made of sodium chlorite with the concentration of 7.47% and sodium chloride with the concentration of 1.59% with deionized water; the second solution was made of citric acid with the concentration of 16.7% with deionized water.
Dosage and administration: Same volume of solutions were taken out from different vessels with different volumes and put into the suitable glass or plastic cups prepared. Allow the solution to mix for 3-5 minutes and then filter the solution with 0.22 μm filter membrane of double-deck. The alopecia area was smeared with the solution by swab, waiting for 1-2 hours before cleaning the head, once a day. The medicine was taken according to the course of treatment. The first course of treatment was 15-25 days, the second course of treatment began after 2-5 months of drug withdrawal. The administration days were 10-15 days from the second course of treatment, and the next course of treatment began after 2-5 months of drug withdrawal.
The subjects consisted of 42 male hair-loss patients and one patient (22-68 years old.) They were willing to use the drug (hereinafter referred to as administration). See Table 1 for specific information.
To select four circular regions (5.1 cm^2) with diameter of 2.54 cm in the following regions: the center of crown (in front of the whirl on the head, region 1), the middle of crown and forehead (region2), on the forehead (region 3), both sides of forehead (region 4), and calculate the amount of hair through digital photographs respectively on the 10th day (t1), the first month (t2), second month (t3) after administration of the first course of treatment, and the second month (t4) after administration of the second course of treatment, as well as the second month (t5) after administration of the third course of treatment. Then the increased ratios of hair density in different regions were worked out by comparing the amount of hair before administration. (See Table 2)

[4] = tested on: skin and eye mucous membrane; details: content of chlorine dioxide 9.7˜11.4 mg/L; 48 h; cited from earlier work
[5] = 2-6 days after administration, n=43, NaClO2 7.47% + citric acid 16.7% 1:1, topical once a day
[6] = 3-5 days after administration, n=43, NaClO2 7.47%/NaCl 1.59% + citric acid 16.7% mixed 1:1, smeared on alopecia area once a day
[7] = 15-25 days after administration, n=43, NaClO2 7.47% + citric acid 16.7% 1:1, topical once a day
[8] = T1: 10th day, first course, n=43, NaClO2 7.47% + citric acid 16.7% topical
[9] = T2: first month after administration of first course, n=43, NaClO2 7.47% + citric acid 16.7% topical
[10] = T3: second month after administration of first course, n=43, NaClO2 7.47% + citric acid 16.7% topical
[11] = T4: second month after administration of second course, n=43, NaClO2 7.47% + citric acid 16.7% topical
[12] = T5: second month after administration of third course, n=43, NaClO2 7.47% + citric acid 16.7% topical
[13] = inventor's observation, chlorine dioxide solution applied every day
[14] = medicine stopped for 2-5 months after a course of treatment, n=43, NaClO2 7.47% + citric acid 16.7% 1:1, topical once a day

Q: What does the source list for `[O][Cl+][O-]` [chlorine dioxide solution, chlorine dioxide]?
A: VE Cadherin-Positive Mononuclear Cells (ratio among mononuclear cells, mean±SD) ([1]; Day 7 after administration, n=20): 1.5 ± 1.11 %; VE Cadherin-Positive Mononuclear Cells (ratio among mononuclear cells, mean±SD) ([1]; Day 14 after administration, n=15): 1.91 ± 1.65 %; neural function score (median) ([2]; Day 1, model group 3, NaClO2 7.47% + citric acid 16.7% 1:1 diluted five times, carotid artery once a day for ten days after the second day): 3; neural function score (median) ([2]; Day 2, model group 3, diluted solution via carotid artery once a day for ten days after the second day): 3; neural function score (median) ([2]; Day 3, model group 3, diluted solution via carotid artery once a day for ten days after the second day): 2; neural function score (median) ([2]; Day 4, model group 2, diluted solution via carotid artery once a day for ten days after the second day): 2; neural function score (median) ([2]; Day 5, model group 2, diluted solution via carotid artery once a day for ten days after the second day): 1; neural function score (median) ([2]; Day 6, model group 2, diluted solution via carotid artery once a day for ten days after the second day): 1; neural function score (median) ([2]; Day 7, model group 2, diluted solution via carotid artery once a day for ten days after the second day): 1; neural function score (median) ([2]; Day 8, model group 2, diluted solution via carotid artery once a day for ten days after the second day): 0; neural function score (median) ([2]; Day 9, model group 1, diluted solution via carotid artery once a day for ten days after the second day): 0; neural function score (median) ([2]; Day 10, model group 1, diluted solution via carotid artery once a day for ten days after the second day): 0; neural function score (median) ([2]; Day 11, model group 1, diluted solution via carotid artery once a day for ten days after the second day): 0; neural function score (median) ([2]; Day 12, model group 1, diluted solution via carotid artery once a day for ten days after the second day): 0; neural function score (median) ([2]; Day 13, model group 1, diluted solution via carotid artery once a day for ten days after the second day): 0; neural function score (median) ([2]; Day 14, model group 1, diluted solution via carotid artery once a day for ten days after the second day): 0; neural function score (median) ([2]; Day 15, model group 1, diluted solution via carotid artery once a day for ten days after the second day): 0; neural function score (median) ([2]; Day 16, model group 1, diluted solution via carotid artery once a day for ten days after the second day): 0; neural function score (median) ([2]; Day 17, model group 1, diluted solution via carotid artery once a day for ten days after the second day): 0; neural function score (median) ([2]; Day 18, model group 1, diluted solution via carotid artery once a day for ten days after the second day): 0; neural function score (median) ([2]; Day 19, model group 1, diluted solution via carotid artery once a day for ten days after the second day): 0; neural function score (median) ([2]; Day 20, model group 1, diluted solution via carotid artery once a day for ten days after the second day): 0; neural function score (median) ([2]; Day 21, model group 1, diluted solution via carotid artery once a day for ten days after the second day): 0**; onset of recovery of neural function, treatment group vs model group ([2]; significant particularly on day 7, 8, 9 and 16 after operation): earlier than that in the model group; Effective rate: hair in the affected area fell off quickly [3, 5]: 100%; No. effective patients: hair in the affected area fell off quickly [3, 5]: 43; Effective rate: beard like new hair regrew, seen by naked eyes [3, 6]: 98%; No. effective patients: beard like new hair regrew, seen by naked eyes [3, 6]: 42; Effective rate: new hair grew persistently [3, 7]: 93%; No. effective patients: new hair grew persistently [3, 7]: 40; increased ratio of hair density vs before administration, Region 1 (center of crown) ([3]; T1: 10th day, first course, digital photographs, n=43, NaClO2 7.47% + citric acid 16.7% topical once a day): 123%; increased ratio of hair density vs before administration, Region 2 (middle of crown and forehead) [3, 8]: 117%; increased ratio of hair density vs before administration, Region 3 (on the forehead) [3, 8]: 133%; increased ratio of hair density vs before administration, Region 4 (both sides of forehead) [3, 8]: 102%; increased ratio of hair density vs before administration, Region 1 (center of crown) [3, 9]: 137%; increased ratio of hair density vs before administration, Region 2 (middle of crown and forehead) [3, 9]: 129%; increased ratio of hair density vs before administration, Region 3 (on the forehead) [3, 9]: 134%; increased ratio of hair density vs before administration, Region 4 (both sides of forehead) [3, 9]: 157%; increased ratio of hair density vs before administration, Region 1 (center of crown) [3, 10]: 154%; increased ratio of hair density vs before administration, Region 2 (middle of crown and forehead) [3, 10]: 142%; increased ratio of hair density vs before administration, Region 3 (on the forehead) [3, 10]: 153%; increased ratio of hair density vs before administration, Region 4 (both sides of forehead) [3, 10]: 163%; increased ratio of hair density vs before administration, Region 1 (center of crown) [3, 11]: 196%; increased ratio of hair density vs before administration, Region 2 (middle of crown and forehead) [3, 11]: 185%; increased ratio of hair density vs before administration, Region 3 (on the forehead) [3, 11]: 201%; increased ratio of hair density vs before administration, Region 4 (both sides of forehead) [3, 11]: 260%; increased ratio of hair density vs before administration, Region 1 (center of crown) [3, 12]: 354%; increased ratio of hair density vs before administration, Region 2 (middle of crown and forehead) [3, 12]: 402%; increased ratio of hair density vs before administration, Region 3 (on the forehead) [3, 12]: 396%; increased ratio of hair density vs before administration, Region 4 (both sides of forehead) [3, 12]: 433%; time until new hair could grow, most of patients ([3]; after administration, topical once a day): 2 to 3 days; duration of stabbing pain after application ([3]; human, in vivo): 15 to 30 min; time until new hair grows in alopecia area with hair [3, 13]: third to the fifth day; time until new hair grows in alopecia area without hair [3, 13]: about 20 days; Effective rate: hair recovered by one level, judged by naked eyes [3, 14]: 81%; No. effective patients: hair recovered by one level, judged by naked eyes [3, 14]: 35; skin reaction in the administered area ([3]; when administered for three days, red spot like solidified bleeding wound): micro wound was produced; stimulation score to skin and eye mucous membrane [4]: 0

Reference: patent US20150335678A1, “METHOD OF ACTIVATING STEM CELLS IN AN ANIMAL AND THE USE OF CHLORINE DIOXIDE FOR PREPARING MEDICINES FOR ACTIVATING STEM CELLS IN AN ANIMAL” (priority 2012, published 2015)
